Experimental data published in patent US8889712B2, “IAP antagonists” (Bristol-Myers Squibb Company, priority 2012, dated 2014).
Where two headings read alike, the source gives them in different places.

How the values were obtained:
XIAP BIR3 = target: T1, XIAP BIR3 (Homo sapiens, UniProt P98170); assay: XIAP-BIR3/SMAC Homogeneous Time Resolved Fluorescence (HTRF) Assay; type: binding
T1 construct: His-BIR3 (241-356, XIAP)
Outline: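 Competition HTRF between XIAP-BIR3 and SMAC; reaction 60 min at room temperature, then anti-6×His-terbium Fab detection for a further 30 min.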

XIAP BIR2-3 = target: T2, XIAP BIR2-3 (Homo sapiens, UniProt P98170, C202A/C213G); assay: XIAP-BIR2-3 dimeric SMAC Peptide Homogeneous Time Resolved Fluorescence (HTRF) Assay; type: binding
T2 construct: His-BIR2-3 (125-356, C202A/C213G, XIAP)
Description: B. […] Assays were performed in black, flat-bottom, 384-well plates. […] Compounds were dissolved at 3 mM in dimethylsulfoxide (DMSO) and evaluated at eleven serially diluted concentrations. IC50 and Ki values were derived by non-linear regression analysis.

[1] = 1 nM N-His-BIR3 (241-356, XIAP), 5 nM fluorescein labeled SMAC peptide, HTRF signal, read-out: XIAP BIR3 IC50
[2] = 0.5 nM N-His-BIR2-3 (125-356, C202A/C213G, XIAP), 20 nM fluorescein labeled dimeric SMAC peptide, HTRF signal, read-out: XIAP BIR2-3 IC50

T1 sequence (P98170 241-356): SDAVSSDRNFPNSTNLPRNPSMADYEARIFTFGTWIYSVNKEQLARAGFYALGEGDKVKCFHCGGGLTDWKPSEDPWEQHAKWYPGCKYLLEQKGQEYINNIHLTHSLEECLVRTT
T2 sequence (P98170 125-356 C202A/C213G): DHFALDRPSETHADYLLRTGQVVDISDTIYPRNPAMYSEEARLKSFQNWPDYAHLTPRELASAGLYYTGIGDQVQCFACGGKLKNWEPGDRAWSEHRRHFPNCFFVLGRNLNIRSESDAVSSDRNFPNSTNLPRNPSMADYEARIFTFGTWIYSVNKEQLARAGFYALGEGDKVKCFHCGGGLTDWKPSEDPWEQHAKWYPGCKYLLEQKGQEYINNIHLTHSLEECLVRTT

| IC50 (XIAP BIR3; [1]) [nM] | IC50 (XIAP BIR2-3; [2]) [nM] | SMILES | IC50 (XIAP BIR3) [nM] | IC50 (XIAP BIR2-3) [nM] |
| --- | --- | --- | --- | --- |
| 11 | 196 | CN[C@@H](C)C(=O)N[C@H](C(=O)N1Cc2ccc(C(=O)N[C@H]3C[C@@H](C(=O)N[C@@H]4CCCc5ccccc54)N(C(=O)[C@@H](NC(=O)[C@H](C)NC)C(C)(C)C)C3)cc2C[C@@H]1C(=O)N[C@@H]1CCCc2ccccc21)C(C)(C)C [Example 26, (R)-2-((S)-3,3-Dimethyl-2-((S)-2-(methylamino)propanamido)butanoyl)-N6-((3S,5S)-1-((S)-3,3-dimethyl-2-((S)-2-(methylamino)propanamido)butanoyl)-5-(((R)-1,2,3,4-tetrahydronaphthalen-1-yl)carbamoyl)pyrrolidin-3-yl)-N^3—((R)-1,2,3,4-tetrahydronaphthalen-1-yl)-1,2,3,4-tetrahydroisoquinoline-3,6-dicarboxamide] | – | – |
| – | – | CN[C@@H](C)C(=O)N[C@H](C(=O)N1Cc2cc(NC(=O)[C@H]3C[C@@H](C(=O)N[C@@H]4CCCc5ccccc54)N(C(=O)[C@@H](NC(=O)[C@H](C)NC)C(C)(C)C)C3)ccc2C[C@H]1C(=O)N[C@@H]1CCCc2ccccc21)C(C)(C)C [Example 27, (2S,4S)-1-((S)-3,3-Dimethyl-2-((S)-2-(methylamino)propanamido)butanoyl)-N^4—((S)-2-((S)-3,3-dimethyl-2-((S)-2-(methylamino)propanamido)butanoyl)-3-(((R)-1,2,3,4-tetrahydronaphthalen-1-yl)carbamoyl)-1,2,3,4-tetrahydroisoquinolin-7-yl)-N^2—((R)-1,2,3,4-tetrahydronaphthalen-1-yl)pyrrolidine-2,4-dicarboxamide] | 5 | 1 |
| 5.1 | 2.2 | CN[C@@H](C)C(=O)N[C@H](C(=O)N1C[C@@H](c2ccc3c(c2)CN(C(=O)[C@@H](NC(=O)[C@H](C)NC)C(C)(C)SCCO)[C@H](C(=O)N[C@@H]2CCCc4ccccc42)C3)C[C@H]1C(=O)N[C@@H]1CCCc2ccccc21)C(C)(C)C [Example 28, (S)-7-((3R,5S)-1-((S)-3,3-Dimethyl-2-((S)-2-(methylamino)propanamido)butanoyl)-5-(((R)-1,2,3,4-tetrahydronaphthalen-1-yl)carbamoyl)pyrrolidin-3-yl)-2-((R)-3-((2-hydroxyethyl)thio)-3-methyl-2-((S)-2-(methylamino)propanamido)butanoyl)-N—((R)-1,2,3,4-tetrahydronaphthalen-1-yl)-1,2,3,4-tetrahydroisoquinoline-3-carboxamide] | – | – |
| 11.7 | 0.8 | CN[C@@H](C)C(=O)N[C@H](C(=O)N1C[C@@H](c2ccc3c(c2)CN(C(=O)[C@@H](NC(=O)[C@H](C)NC)C(C)(C)SCC(=O)NCCO)[C@H](C(=O)N[C@@H]2CCCc4ccccc42)C3)C[C@H]1C(=O)N[C@@H]1CCCc2ccccc21)C(C)(C)C [Example 29, (S)-7-((3R,5S)-1-((S)-3,3-Dimethyl-2-((S)-2-(methylamino)propanamido)butanoyl)-5-(((R)-1,2,3,4-tetrahydronaphthalen-1-yl)carbamoyl)pyrrolidin-3-yl)-2-((R)-3-((2-((2-hydroxyethyl)amino)-2-oxoethyl)thio)-3-methyl-2-((S)-2-(methylamino)propanamido)butanoyl)-N—((R)-1,2,3,4-tetrahydronaphthalen-1-yl)-1,2,3,4-tetrahydroisoquinoline-3-carboxamide] | – | – |
| 3.9 | 5.7 | CN[C@@H](C)C(=O)N[C@H](C(=O)N1C[C@@H](c2ccc3c(c2)CN(C(=O)[C@@H](NC(=O)[C@H](C)NC)C(C)(C)SCC(=O)N(C)C)[C@H](C(=O)N[C@@H]2CCCc4ccccc42)C3)C[C@H]1C(=O)N[C@@H]1CCCc2ccccc21)C(C)(C)C [Example 30, (S)-7-((3R,5S)-1-((S)-3,3-Dimethyl-2-((S)-2-(methylamino)propanamido)butanoyl)-5-(((R)-1,2,3,4-tetrahydronaphthalen-1-yl)carbamoyl)pyrrolidin-3-yl)-2-((R)-3-((2-(dimethylamino)-2-oxoethyl)thio)-3-methyl-2-((S)-2-(methylamino)propanamido)butanoyl)-N-((R)-1,2,3,4-tetrahydronaphthalen-1-yl)-1,2,3,4-tetrahydroisoquinoline-3-carboxamide] | – | – |
| 13.8 | 1.2 | CN[C@@H](C)C(=O)N[C@H](C(=O)N1C[C@@H](c2ccc3c(c2)CN(C(=O)[C@@H](NC(=O)[C@H](C)NC)C(C)(C)SCC(=O)NC(CO)CO)[C@H](C(=O)N[C@@H]2CCCc4ccccc42)C3)C[C@H]1C(=O)N[C@@H]1CCCc2ccccc21)C(C)(C)C [Example 31, (S)-2-((R)-3-((2-((1,3-Dihydroxypropan-2-yl)amino)-2-oxoethyl)thio)-3-methyl-2-((S)-2-(methylamino)propanamido)butanoyl)-7-((3R,5S)-1-((S)-3,3-dimethyl-2-((S)-2-(methylamino)propanamido)butanoyl)-5-(((R)-1,2,3,4-tetrahydronaphthalen-1-yl)carbamoyl)pyrrolidin-3-yl)-N-((R)-1,2,3,4-tetrahydronaphthalen-1-yl)-1,2,3,4-tetrahydroisoquinoline-3-carboxamide] | – | – |
| 8.7 | 1.9 | CN[C@@H](C)C(=O)N[C@H](C(=O)N1CC(c2ccc3c(c2)CN(C(=O)[C@@H](NC(=O)[C@H](C)NC)C(C)(C)SCC(=O)O)[C@H](C(=O)NC2CCCc4ccccc42)C3)C[C@H]1C(=O)NC1CCCc2ccccc21)C(C)(C)C (stereo partly drawn) [Example 32, 2-(((R)-4-((S)-7-((3R,5S)-1-((S)-3,3-Dimethyl-2-((S)-2-(methylamino)propanamido)butanoyl)-5-(((R)-1,2,3,4-tetrahydronaphthalen-1-yl)carbamoyl)pyrrolidin-3-yl)-3-(((R)-1,2,3,4-tetrahydronaphthalen-1-yl)carbamoyl)-3,4-dihydroisoquinolin-2(1H)-yl)-2-methyl-3-((S)-2-(methylamino)propanamido)-4-oxobutan-2-yl)thio)acetic acid, 2TFA] | – | – |
| 1.8 | 1.7 | CN[C@@H](C)C(=O)N[C@H](C(=O)N1C[C@@H](c2ccc3c(c2)CN(C(=O)[C@@H](NC(=O)[C@H](C)NC)C(C)(C)C)[C@H](C(=O)N[C@@H]2CCOc4ccccc42)C3)C[C@H]1C(=O)N[C@@H]1CCCc2ccccc21)C(C)(C)C [Example 33, (S)—N—((R)—Chroman-4-yl)-2-((S)-3,3-dimethyl-2-((S)-2-(methylamino)propanamido)butanoyl)-7-((3R,5S)-1-((S)-3,3-dimethyl-2-((S)-2-(methylamino)propanamido)butanoyl)-5-(((R)-1,2,3,4-tetrahydronaphthalen-1-yl)carbamoyl)pyrrolidin-3-yl)-1,2,3,4-tetrahydroisoquinoline-3-carboxamide] | – | – |
| 4.8 | 7 | CN[C@@H](C)C(=O)N[C@H](C(=O)N1Cc2cc([C@H]3C[C@@H](C(=O)N[C@@H]4CCCc5ccccc54)N(C(=O)[C@@H](NC(=O)[C@H](C)NC)C(C)(C)C)C3)ccc2C[C@H]1C(=O)N[C@H](CO)Cc1ccccc1)C(C)(C)C [Example 34, (S)-2-((S)-3,3-Dimethyl-2-((S)-2-(methylamino)propanamido)butanoyl)-7-((3R,5S)-1-((S)-3,3-dimethyl-2-((S)-2-(methylamino)propanamido)butanoyl)-5-(((R)-1,2,3,4-tetrahydronaphthalen-1-yl)carbamoyl)pyrrolidin-3-yl)-N-((S)-1-hydroxy-3-phenylpropan-2-yl)-1,2,3,4-tetrahydroisoquinoline-3-carboxamide] | – | – |
